Columns and labels:
Format in all cases: cell-based
IGROV = assay: SRB colorimetric cell growth inhibition assay, IGROV; details: Homo sapiens, IGROV; for GI50: GI=growth inhibition, read-out: GI50 IGROV; for CC50: cell killing (cytotoxic effect), read-out: LC50 IGROV; for IC (TGI): total growth inhibition (cytostatic effect), read-out: TGI IGROV
Outline: (§1)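 Continuous-exposure format, human tumour lines. SRB colour reaction quantifies growth/viability. Triplicate wells → mean ± SD → GI, TGI, LC.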

HT-29 = assay: SRB colorimetric cell growth inhibition assay, HT-29; details: Homo sapiens, HT-29, HT-29; for GI50: GI=growth inhibition, read-out: GI50 HT-29; for CC50: cell killing (cytotoxic effect), read-out: LC50 HT-29; for IC (TGI): total growth inhibition (cytostatic effect), read-out: TGI HT-29
Outline: as §1

IGROV-ET = assay: SRB colorimetric cell growth inhibition assay, IGROV-ET (ET-743 resistant); details: Homo sapiens, IGROV-ET; for GI50: GI=growth inhibition, read-out: GI50 IGROV-ET; for CC50: cell killing (cytotoxic effect), read-out: LC50 IGROV-ET; for IC (TGI): total growth inhibition (cytostatic effect), read-out: TGI IGROV-ET
Outline: as §1

DU-145 = assay: SRB colorimetric cell growth inhibition assay, DU-145; details: Homo sapiens, DU-145, DU-145; for GI50: GI=growth inhibition, read-out: GI50 DU-145; for CC50: cell killing (cytotoxic effect), read-out: LC50 DU-145; for IC (TGI): total growth inhibition (cytostatic effect), read-out: TGI DU-145
Outline: as §1

LNCaP = assay: SRB colorimetric cell growth inhibition assay, LNCaP; details: Homo sapiens, LNCaP, LN-caP; for GI50: GI=growth inhibition, read-out: GI50 LN-caP; for CC50: cell killing (cytotoxic effect), read-out: LC50 LN-caP; for IC (TGI): total growth inhibition (cytostatic effect), read-out: TGI LN-caP
Outline: as §1

SK-MEL-28 = assay: SRB colorimetric cell growth inhibition assay, SK-MEL-28; details: Homo sapiens, SK-MEL-28, MEL-28; for GI50: GI=growth inhibition, read-out: GI50 MEL-28; for CC50: cell killing (cytotoxic effect), read-out: LC50 MEL-28; for IC (TGI): total growth inhibition (cytostatic effect), read-out: TGI MEL-28
Outline: as §1

A-549 = assay: SRB colorimetric cell growth inhibition assay, A-549; details: Homo sapiens, A549, A-549; for GI50: GI=growth inhibition, read-out: GI50 A-549; for CC50: cell killing (cytotoxic effect), read-out: LC50 A-549; for IC (TGI): total growth inhibition (cytostatic effect), read-out: TGI A-549
Outline: as §1

HeLa = assay: SRB colorimetric cell growth inhibition assay, HeLa; details: Homo sapiens, HeLa; for GI50: GI=growth inhibition, read-out: GI50 HELA; for CC50: cell killing (cytotoxic effect), read-out: LC50 HELA; for IC (TGI): total growth inhibition (cytostatic effect), read-out: TGI HELA
Outline: as §1

K-562 = assay: SRB colorimetric cell growth inhibition assay, K-562; details: Homo sapiens, K562, K-562; for GI50: GI=growth inhibition, read-out: GI50 K-562; for CC50: cell killing (cytotoxic effect), read-out: LC50 K-562; for IC (TGI): total growth inhibition (cytostatic effect), read-out: TGI K-562
Outline: as §1

SK-BR-3 = assay: SRB colorimetric cell growth inhibition assay, SK-BR-3; details: Homo sapiens, SK-BR-3, SK-BR-3; for GI50: GI=growth inhibition, read-out: GI50 SK-BR-3; for CC50: cell killing (cytotoxic effect), read-out: LC50 SK-BR-3; for IC (TGI): total growth inhibition (cytostatic effect), read-out: TGI SK-BR-3
Outline: as §1

LoVo-Dox = assay: SRB colorimetric cell growth inhibition assay, LoVo-Dox (MDR); details: Homo sapiens, LOVO-DOX; for GI50: GI=growth inhibition, read-out: GI50 LOVO-DOX; for CC50: cell killing (cytotoxic effect), read-out: LC50 LOVO-DOX; for IC (TGI): total growth inhibition (cytostatic effect), read-out: TGI LOVO-DOX
Outline: as §1

LoVo = assay: SRB colorimetric cell growth inhibition assay, LoVo; details: Homo sapiens, LoVo; for GI50: GI=growth inhibition, read-out: GI50 LOVO; for CC50: cell killing (cytotoxic effect), read-out: LC50 LOVO; for IC (TGI): total growth inhibition (cytostatic effect), read-out: TGI LOVO
Outline: as §1

PANC-1 = assay: SRB colorimetric cell growth inhibition assay, PANC-1; details: Homo sapiens, PANC-1, PANC-1; for GI50: GI=growth inhibition, read-out: GI50 PANC-1; for CC50: cell killing (cytotoxic effect), read-out: LC50 PANC-1; for IC (TGI): total growth inhibition (cytostatic effect), read-out: TGI PANC-1
Outline: as §1

HeLa-APL = assay: SRB colorimetric cell growth inhibition assay, HeLa-APL (aplidine resistant); details: Homo sapiens, HELA-APL; for GI50: GI=growth inhibition, read-out: GI50 HELA-APL; for CC50: cell killing (cytotoxic effect), read-out: LC50 HELA-APL; for IC (TGI): total growth inhibition (cytostatic effect), read-out: TGI HELA-APL
Outline: as §1

SMILES: COc1cc(-c2c3c4cc(OC)c(OC(=O)[C@@H](N)CC(C)C)cc4oc(=O)c3n3ccc4cc(OC(=O)[C@@H](N)CC(C)C)c(OC)cc4c23)ccc1OC(=O)[C@@H](N)CC(C)C [Compound 181]
- GI50 (IGROV): 0.038 µM
- CC50 (IGROV): 3.2 µM
- IC (TGI) (IGROV): 0.231 µM
- GI50 (HT-29): 3.06 µM
- CC50 (HT-29): 10.5 µM
- IC (TGI) (HT-29): 10.5 µM
- GI50 (IGROV-ET): 0.05 µM
- CC50 (IGROV-ET): 10.5 µM
- IC (TGI) (IGROV-ET): 0.341 µM
- GI50 (DU-145): 0.0249 µM
- CC50 (DU-145): 10.5 µM
- IC (TGI) (DU-145): 0.0594 µM
- GI50 (LNCaP): 0.0593 µM
- CC50 (LNCaP): 0.678 µM
- IC (TGI) (LNCaP): 0.237 µM
- GI50 (SK-MEL-28): 0.0168 µM
- CC50 (SK-MEL-28): 2.14 µM
- IC (TGI) (SK-MEL-28): 0.0956 µM
- GI50 (A-549): 0.0198 µM
- CC50 (A-549): 8.18 µM
- IC (TGI) (A-549): 0.209 µM
- GI50 (HeLa): 0.0478 µM
- CC50 (HeLa): 10.5 µM
- IC (TGI) (HeLa): 0.632 µM
- GI50 (K-562): 0.0328 µM
- CC50 (K-562): 7.14 µM
- IC (TGI) (K-562): 0.444 µM
- GI50 (SK-BR-3): 0.0206 µM
- CC50 (SK-BR-3): 0.862 µM
- IC (TGI) (SK-BR-3): 0.0592 µM
- GI50 (LoVo-Dox): 0.0945 µM
- CC50 (LoVo-Dox): 10.5 µM
- IC (TGI) (LoVo-Dox): 0.47 µM
- GI50 (LoVo): 0.331 µM
- CC50 (LoVo): 10.5 µM
- IC (TGI) (LoVo): 1.1 µM
- GI50 (PANC-1): 0.0864 µM
- CC50 (PANC-1): 10.5 µM
- IC (TGI) (PANC-1): 2.09 µM
- GI50 (HeLa-APL): 0.0667 µM
- CC50 (HeLa-APL): 8.14 µM
- IC (TGI) (HeLa-APL): 0.477 µM

SMILES: COc1cc(-c2c3c4cc(OC)c(OC(=O)[C@H](C)NC(=O)[C@H](C)N)cc4oc(=O)c3n3ccc4c(OC(=O)[C@H](C)NC(=O)[C@H](C)N)c(OC)c(OC)cc4c23)ccc1OC(=O)[C@H](C)NC(=O)[C@H](C)N [Compound 5]
- GI50 (IGROV): 0.247 µM
- CC50 (IGROV): 4.54 µM
- IC (TGI) (IGROV): 0.855 µM
- GI50 (HT-29): 1.7 µM
- CC50 (HT-29): 6.16 µM
- IC (TGI) (HT-29): 3.24 µM
- GI50 (IGROV-ET): 0.212 µM
- CC50 (IGROV-ET): 6.09 µM
- IC (TGI) (IGROV-ET): 1.06 µM
- GI50 (DU-145): 0.0356 µM
- CC50 (DU-145): 0.575 µM
- IC (TGI) (DU-145): 0.119 µM
- GI50 (LNCaP): 0.223 µM
- CC50 (LNCaP): 3.62 µM
- IC (TGI) (LNCaP): 1.05 µM
- GI50 (SK-MEL-28): 0.0629 µM
- CC50 (SK-MEL-28): 1.12 µM
- IC (TGI) (SK-MEL-28): 0.249 µM
- GI50 (A-549): 0.121 µM
- CC50 (A-549): 4.65 µM
- IC (TGI) (A-549): 1.02 µM
- GI50 (HeLa): 0.124 µM
- CC50 (HeLa): 3.1 µM
- IC (TGI) (HeLa): 1.12 µM
- GI50 (K-562): 0.077 µM
- CC50 (K-562): 7.4 µM
- IC (TGI) (K-562): 1.1 µM
- GI50 (SK-BR-3): 0.241 µM
- CC50 (SK-BR-3): 3.54 µM
- IC (TGI) (SK-BR-3): 0.595 µM
- GI50 (LoVo-Dox): 0.409 µM
- CC50 (LoVo-Dox): 3.4 µM
- IC (TGI) (LoVo-Dox): 1.1 µM
- GI50 (LoVo): 0.345 µM
- CC50 (LoVo): 4.14 µM
- IC (TGI) (LoVo): 1.06 µM
- GI50 (PANC-1): 0.418 µM
- CC50 (PANC-1): 4.51 µM
- IC (TGI) (PANC-1): 1.64 µM
- GI50 (HeLa-APL): 0.31 µM
- CC50 (HeLa-APL): 5.55 µM
- IC (TGI) (HeLa-APL): 1.71 µM

SMILES: COc1cc2c(cc1O)CCn1c-2cc2c3cc(OC)c(O)cc3oc(=O)c21 [Compound 196]
- GI50 (IGROV): 0.691 µM
- CC50 (IGROV): 16.5 µM
- IC (TGI) (IGROV): 2.49 µM
- GI50 (HT-29): 8.46 µM
- CC50 (HT-29): 26.4 µM
- IC (TGI) (HT-29): 26.4 µM
- GI50 (IGROV-ET): 0.849 µM
- CC50 (IGROV-ET): 26.4 µM
- IC (TGI) (IGROV-ET): 3.85 µM
- GI50 (DU-145): 0.414 µM
- CC50 (DU-145): 11.2 µM
- IC (TGI) (DU-145): 1.65 µM
- GI50 (LNCaP): 0.398 µM
- CC50 (LNCaP): 9.78 µM
- IC (TGI) (LNCaP): 1.45 µM
- GI50 (SK-MEL-28): 0.675 µM
- CC50 (SK-MEL-28): 26.4 µM
- IC (TGI) (SK-MEL-28): 8.99 µM
- GI50 (A-549): 1.68 µM
- CC50 (A-549): 26.4 µM
- IC (TGI) (A-549): 26.4 µM
- GI50 (HeLa): 0.351 µM
- CC50 (HeLa): 26.4 µM
- IC (TGI) (HeLa): 1.93 µM
- GI50 (K-562): 0.234 µM
- CC50 (K-562): 1.5 µM
- IC (TGI) (K-562): 0.614 µM
- GI50 (SK-BR-3): 0.654 µM
- CC50 (SK-BR-3): 26.4 µM
- IC (TGI) (SK-BR-3): 1.65 µM
- GI50 (LoVo-Dox): 0.517 µM
- CC50 (LoVo-Dox): 26.4 µM
- IC (TGI) (LoVo-Dox): 26.4 µM
- GI50 (LoVo): 0.799 µM
- CC50 (LoVo): 26.4 µM
- IC (TGI) (LoVo): 3.53 µM
- GI50 (PANC-1): 0.957 µM
- CC50 (PANC-1): 26.4 µM
- IC (TGI) (PANC-1): 7.25 µM
- GI50 (HeLa-APL): 0.117 µM
- CC50 (HeLa-APL): 1.92 µM
- IC (TGI) (HeLa-APL): 0.511 µM

— patent US7396837B2, “Antitumoral analogs of lamellarins” (Pharma Mar, S.A.U., priority 2002, dated 2008)
